Data from patent publication US20230257385A1, “SALT AND SOLID FORMS OF TABERNANTHALOG” (priority 2021, published 2023).
Counter-ions that a name gives are not always drawn.

Assay: Qualitative solubility screen of Tabernanthalog sorbate salt (Example 10, Experiment 2)
Assay type: physicochemical
Protocol: The qualitative solubility screen was carried out to determine the range of solvents incorporated into future suspension equilibration panels. Products that crystallised were centrifuged and analysed as wet pellet by XRPD, dried under reduced pressure and re-analysed by XRPD, with selected samples further analysed by TGA and ^1H NMR spectroscopy.
If insoluble at 5 vol, the solvent quantity was increased to 10 vol, 15 vol and 20 vol of the respective solvent. The suspensions that occurred upon cooling down were centrifuged and the solvent wet pellets were analysed by XRPD.
The insoluble suspensions were additionally worked up for XRPD analysis. The resultant powder patterns were subsequently cross-referenced against the input supplied material.

[1] = Acetone/Water (5% v/v, 0.5 aw), 5 vol

In the case of `COc1ccc2c3c([nH]c2c1)CCN(C)CC3` [tabernanthalog sorbate salt], the Solid on cooling (2-Propanol, 5 vol) is reported as “✓”, the Solution at reflux (2-Propanol, 5 vol) is reported as “✓” and the Solid on cooling (2-Propanol, 10 vol) is reported as “✓”. For the same molecule, the Solution at reflux (2-Propanol, 10 vol) was “✓”, the Solid on cooling (2-Propanol, 15 vol) was “✓” and the Solution at reflux (2-Propanol, 15 vol) was “✓”. For the same molecule, the Solid on cooling (2-Propanol, 20 vol) was “✓”, the Solution at reflux (2-Propanol, 20 vol) was “✓” and the Solid on cooling (Acetone, 10 vol) was “✓”. For the same molecule, the Solution at reflux (Acetone, 10 vol) was “✓”, the Solid on cooling (Acetone, 15 vol) was “✓” and the Solution at reflux (Acetone, 15 vol) was “✓”. For the same molecule, the Solid on cooling (Acetone, 20 vol) was “✓”, the Solution at reflux (Acetone, 20 vol) was “✓” and the Solid on cooling [1] was “✓”. The “Solution at 40° C.” value [1] was “✓”, the Solid on cooling (Chlorobenzene, 5 vol) was “✓” and the Solution at reflux (Chlorobenzene, 5 vol) was “✓”. The Solid on cooling (Chlorobenzene, 10 vol) was “✓”, the Solution at reflux (Chlorobenzene, 10 vol) was “✓” and the Solid on cooling (Chlorobenzene, 15 vol) was “✓”. The Solution at reflux (Chlorobenzene, 15 vol) was “✓”, the Solid on cooling (Chlorobenzene, 20 vol) was “✓” and the “Solution at 20° C.” value (Chlorobenzene, 20 vol) was “×”. For the same molecule, the Solution at reflux (Chlorobenzene, 20 vol) was “✓”, the Solid on cooling (DCM, 5 vol) was “✓” and the Solution at reflux (DCM, 5 vol) was “✓”. For the same molecule, the Solid on cooling (DCM, 10 vol) was “✓”, the “Solution at 40° C.” value (DCM, 10 vol) was “✓” and the “Solution at 40° C.” value (DCM, 15 vol) was “✓”. The Solid on cooling (EtOAc, 5 vol) was “✓”, the Solution at reflux (EtOAc, 5 vol) was “✓” and the Solid on cooling (EtOAc, 10 vol) was “✓”. For the same molecule, the Solution at reflux (EtOAc, 10 vol) was “✓”, the Solid on cooling (EtOAc, 15 vol) was “✓” and the Solution at reflux (EtOAc, 15 vol) was “✓”. The Solid on cooling (EtOAc, 20 vol) was “✓”, the Solution at reflux (EtOAc, 20 vol) was “✓” and the Solid on cooling (EtOH, 5 vol) was “✓”. For the same molecule, the Solution at reflux (EtOH, 5 vol) was “✓”, the Solid on cooling (EtOH, 10 vol) was “✓” and the “Solution at 40° C.” value (EtOH, 10 vol) was “✓”. The “Solution at 40° C.” value (EtOH, 15 vol) was “✓”, the “Solution at 20° C.” value (Ethanol/Water (15% v/v, 0.5 aw), 5 vol) was “✓” and the Solid on cooling (Ethyl formate, 5 vol) was “✓”. The Solution at reflux (Ethyl formate, 5 vol) was “✓”, the Solid on cooling (Ethyl formate, 10 vol) was “✓” and the Solution at reflux (Ethyl formate, 10 vol) was “✓”. For the same molecule, the Solid on cooling (Ethyl formate, 15 vol) was “✓”, the Solution at reflux (Ethyl formate, 15 vol) was “✓” and the Solid on cooling (Ethyl formate, 20 vol) was “✓”. For the same molecule, the Solution at reflux (Ethyl formate, 20 vol) was “✓”, the Solution at reflux (Heptane, 10 vol) was “Oiled” and the “Solution at 40° C.” value (Isopropanol/Water (12%, v/v, 0.5 aw), 5 vol) was “✓”. The Solid on cooling (Isopropyl acetate, 5 vol) was “✓”, the Solution at reflux (Isopropyl acetate, 5 vol) was “✓” and the Solid on cooling (Isopropyl acetate, 10 vol) was “✓”. For the same molecule, the Solution at reflux (Isopropyl acetate, 10 vol) was “✓”, the Solid on cooling (Isopropyl acetate, 15 vol) was “✓” and the Solution at reflux (Isopropyl acetate, 15 vol) was “✓”. For the same molecule, the Solid on cooling (Isopropyl acetate, 20 vol) was “✓”, the Solution at reflux (Isopropyl acetate, 20 vol) was “✓” and the Solid on cooling (MEK, 5 vol) was “✓”. The Solution at reflux (MEK, 5 vol) was “✓”, the Solid on cooling (MEK, 10 vol) was “✓” and the Solution at reflux (MEK, 10 vol) was “✓”. The Solid on cooling (MEK, 15 vol) was “✓”, the Solution at reflux (MEK, 15 vol) was “✓” and the Solid on cooling (MEK, 20 vol) was “✓”. The “Solution at 40° C.” value (MEK, 20 vol) was “✓”, the Solid on cooling (MeCN, 5 vol) was “✓” and the Solution at reflux (MeCN, 5 vol) was “✓”. For the same molecule, the Solid on cooling (MeCN, 10 vol) was “✓”, the Solution at reflux (MeCN, 10 vol) was “✓” and the Solid on cooling (MeCN, 15 vol) was “✓”. For the same molecule, the Solution at reflux (MeCN, 15 vol) was “✓”, the Solid on cooling (MeCN, 20 vol) was “✓” and the Solution at reflux (MeCN, 20 vol) was “✓”. For the same molecule, the “Solution at 20° C.” value (MeOH, 5 vol) was “✓”, the Solid on cooling (MeTHF, 5 vol) was “✓” and the Solution at reflux (MeTHF, 5 vol) was “✓”. The Solid on cooling (MeTHF, 10 vol) was “✓”, the Solution at reflux (MeTHF, 10 vol) was “✓” and the Solid on cooling (MeTHF, 15 vol) was “✓”. For the same molecule, the Solution at reflux (MeTHF, 15 vol) was “✓”, the Solid on cooling (MeTHF, 20 vol) was “✓” and the Solution at reflux (MeTHF, 20 vol) was “✓”. The Solid on cooling (Methyl acetate, 10 vol) was “✓”, the Solution at reflux (Methyl acetate, 10 vol) was “✓” and the Solid on cooling (Methyl acetate, 15 vol) was “✓”. For the same molecule, the Solution at reflux (Methyl acetate, 15 vol) was “✓”, the Solid on cooling (Methyl acetate, 20 vol) was “✓” and the Solution at reflux (Methyl acetate, 20 vol) was “✓”. For the same molecule, the Solid on cooling (Nitromethane, 5 vol) was “✓”, the Solution at reflux (Nitromethane, 5 vol) was “✓” and the Solid on cooling (Nitromethane, 10 vol) was “✓”. For the same molecule, the Solution at reflux (Nitromethane, 10 vol) was “✓”, the Solid on cooling (Nitromethane, 15 vol) was “✓” and the Solution at reflux (Nitromethane, 15 vol) was “✓”. The Solid on cooling (Nitromethane, 20 vol) was “✓”, the Solution at reflux (Nitromethane, 20 vol) was “✓” and the Solid on cooling (THF, 5 vol) was “✓”. The Solution at reflux (THF, 5 vol) was “✓”, the Solution at reflux (THF, 10 vol) was “✓” and the Solid on cooling (Toluene, 5 vol) was “✓”. The Solution at reflux (Toluene, 5 vol) was “✓”, the Solid on cooling (Toluene, 10 vol) was “✓” and the Solution at reflux (Toluene, 10 vol) was “✓”. The Solid on cooling (Toluene, 15 vol) was “✓”, the Solution at reflux (Toluene, 15 vol) was “✓” and the Solid on cooling (Toluene, 20 vol) was “✓”. The Solution at reflux (Toluene, 20 vol) was “✓”, the Solid on cooling (Water, 5 vol) was “✓” and the Solution at reflux (Water, 5 vol) was “✓”. For the same molecule, the Solution at reflux (Water, 10 vol) was “✓”.
